Assay results taken from patent US9540366B2, “Ring-fused heterocyclic compound” (Kyowa Hakko Kirin Co., Ltd., priority 2012, dated 2017).
Where two headings read alike, the source gives them in different places.

Biological target: T1, human Cav3.2 T-type Ca2+ channel (Homo sapiens, UniProt O95180)
T1 construct: expressed in transfected cells; host or cells: KJMGER8 cells (Namalwa cell-derived cell line)
Test: Inhibitory effect for intracellular calcium response via Cav3.2 T-type Ca2+ channels (FLIPR Calcium 3 Assay Kit)
Assay type: cell-based

[1] = human Cav3.2-expressing KJMGER8 cells (Namalwa-derived), calcium response induced by 5 mmol/L CaCl2, 3 μmol/L mibefradil as reference, read-out: IC50 for the human Cav3.2 T-type Ca2+ current

T1 sequence (O95180 whole entry): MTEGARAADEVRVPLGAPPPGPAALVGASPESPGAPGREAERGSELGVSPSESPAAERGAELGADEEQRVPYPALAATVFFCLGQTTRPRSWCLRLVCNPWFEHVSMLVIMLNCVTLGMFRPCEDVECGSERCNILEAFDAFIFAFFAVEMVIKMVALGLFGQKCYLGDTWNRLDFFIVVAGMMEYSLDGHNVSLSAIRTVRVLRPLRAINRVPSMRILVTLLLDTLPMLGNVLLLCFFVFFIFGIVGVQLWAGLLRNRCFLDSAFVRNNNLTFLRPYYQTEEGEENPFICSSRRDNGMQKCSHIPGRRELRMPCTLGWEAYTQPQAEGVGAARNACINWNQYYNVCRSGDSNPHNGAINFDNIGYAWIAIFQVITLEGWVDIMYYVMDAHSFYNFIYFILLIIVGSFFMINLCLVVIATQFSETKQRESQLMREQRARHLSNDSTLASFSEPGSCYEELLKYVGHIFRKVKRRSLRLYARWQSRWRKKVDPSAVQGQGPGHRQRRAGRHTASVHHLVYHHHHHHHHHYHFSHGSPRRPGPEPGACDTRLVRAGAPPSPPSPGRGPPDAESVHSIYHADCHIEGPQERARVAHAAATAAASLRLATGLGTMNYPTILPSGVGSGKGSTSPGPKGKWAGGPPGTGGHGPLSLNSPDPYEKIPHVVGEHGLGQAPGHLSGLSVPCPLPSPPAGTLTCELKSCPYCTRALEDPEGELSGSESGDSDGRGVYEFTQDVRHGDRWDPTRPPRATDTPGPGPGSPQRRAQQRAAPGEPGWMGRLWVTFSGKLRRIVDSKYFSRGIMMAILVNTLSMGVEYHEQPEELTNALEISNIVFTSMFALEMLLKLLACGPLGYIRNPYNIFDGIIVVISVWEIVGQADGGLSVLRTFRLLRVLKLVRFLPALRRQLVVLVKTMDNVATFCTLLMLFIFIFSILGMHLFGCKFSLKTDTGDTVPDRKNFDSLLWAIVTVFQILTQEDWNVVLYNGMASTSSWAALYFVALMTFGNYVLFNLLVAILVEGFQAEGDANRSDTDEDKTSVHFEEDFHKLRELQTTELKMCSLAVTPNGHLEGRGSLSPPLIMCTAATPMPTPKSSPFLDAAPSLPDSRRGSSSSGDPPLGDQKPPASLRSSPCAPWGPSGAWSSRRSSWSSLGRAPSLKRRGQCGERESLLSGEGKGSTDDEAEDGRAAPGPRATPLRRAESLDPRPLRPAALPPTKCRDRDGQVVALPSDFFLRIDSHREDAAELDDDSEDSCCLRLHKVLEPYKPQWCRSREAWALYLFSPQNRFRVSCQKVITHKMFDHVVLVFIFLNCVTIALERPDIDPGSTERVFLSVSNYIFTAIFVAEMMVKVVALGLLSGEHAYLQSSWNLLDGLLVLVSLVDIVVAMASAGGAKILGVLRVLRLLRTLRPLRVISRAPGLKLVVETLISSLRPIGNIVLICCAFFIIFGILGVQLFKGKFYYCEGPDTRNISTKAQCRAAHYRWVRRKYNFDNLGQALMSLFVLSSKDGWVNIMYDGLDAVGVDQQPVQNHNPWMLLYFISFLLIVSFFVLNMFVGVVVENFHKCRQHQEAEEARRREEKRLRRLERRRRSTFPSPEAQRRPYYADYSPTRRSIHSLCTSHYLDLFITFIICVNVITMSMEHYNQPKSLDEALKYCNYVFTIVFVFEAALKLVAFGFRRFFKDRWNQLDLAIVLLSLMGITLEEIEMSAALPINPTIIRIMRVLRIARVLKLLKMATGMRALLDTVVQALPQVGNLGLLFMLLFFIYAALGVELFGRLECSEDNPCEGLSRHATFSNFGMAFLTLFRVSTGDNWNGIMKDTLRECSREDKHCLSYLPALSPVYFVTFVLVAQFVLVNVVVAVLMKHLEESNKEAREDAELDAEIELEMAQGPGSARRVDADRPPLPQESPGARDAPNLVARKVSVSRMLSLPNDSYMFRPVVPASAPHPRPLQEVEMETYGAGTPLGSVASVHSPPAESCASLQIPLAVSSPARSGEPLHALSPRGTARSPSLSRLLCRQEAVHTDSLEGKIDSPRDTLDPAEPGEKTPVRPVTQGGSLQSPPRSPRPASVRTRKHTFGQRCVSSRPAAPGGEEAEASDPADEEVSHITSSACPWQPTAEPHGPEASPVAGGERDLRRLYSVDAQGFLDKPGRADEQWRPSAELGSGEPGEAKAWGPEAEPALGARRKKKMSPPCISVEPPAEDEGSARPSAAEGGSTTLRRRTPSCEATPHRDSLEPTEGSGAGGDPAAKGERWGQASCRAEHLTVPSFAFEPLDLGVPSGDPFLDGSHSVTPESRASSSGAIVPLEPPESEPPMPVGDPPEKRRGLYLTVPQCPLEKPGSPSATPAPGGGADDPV

`CC(C)(C)c1nc2cc(C(=O)NC3CC4(COC4)C3)c(Cl)cn2c1CC1CCC(F)(F)CC1` [Compound 148, 2-tert-Butyl-6-chloro-3-[(4,4-difluorocyclohexyl)methyl]-N-(2-oxaspiro[3.3]heptane-6-yl)imidazo[1,2-a]pyridine-7-carboxamide] was tested, and the IC50 was at most 100 nM.
For `Cc1cc(C(=O)NC2CCC3(CC2)COC3)cc2nc(C(F)(F)F)c(CC3CCC(F)(F)CC3)n12` [Compound 126, 3-[(4,4-Difluorocyclohexyl)methyl]-5-methyl-N-(2-oxaspiro[3.5]nonan-7-yl)-2-(trifluoromethyl)imidazo[1,2-a]pyridine-7-carboxamide], the IC50 [1] was at most 100 nM.
`CCOC(=O)C1(NC(=O)c2cc(C#N)n3c(CC4CCC(F)(F)CC4)c(C(F)(F)F)nc3c2)CC1` [Compound 161, Ethyl 1-{5-cyano-3-[(4,4-difluorocyclohexyl)methyl]-2-(trifluoromethyl)imidazo[1,2-a]pyridine-7-carboxamide}cyclopropanecarboxylate] was tested, and the IC50 was at most 100 nM.
In the case of `C[C@H](NC(=O)c1cc(C#N)n2c(CC3CCC(F)(F)CC3)c(C(F)(F)F)nc2c1)C(=O)N(C)C` [Compound 187, (S)-5-Cyano-3-[(4,4-difluorocyclohexyl)methyl]-N-[1-(dimethylamino)-1-oxopropan-2-yl]-2-(trifluoromethyl)imidazo[1,2-a]pyridine-7-carboxamide], the IC50 is reported as at most 100 nM.
For `CC(C)c1nc2cc(C(=O)NC(C)(C)C)cc(C#N)n2c1CC1CCC(F)(F)CC1` [Compound 226, N-tert-Butyl-5-cyano-3-[(4,4-difluorocyclohexyl)methyl]-2-isopropylimidazo[1,2-a]pyridine-7-carboxamide], the IC50 was at most 100 nM.
With `Cc1cc(C(=O)NC(C)(C)C)cc2nc(C(C)(F)F)c(CC3CCC(F)(F)CC3)n12` [Compound 218, N-tert-Butyl-3-[(4,4-difluorocyclohexyl)methyl]-2-(1,1-difluoroethyl)-5-methylimidazo[1,2-a]pyridine-7-carboxamide] the IC50 was at most 100 nM.
Molecule `Cc1cc(C(=O)NC2CCOCC2)cc2nc(C(F)(F)F)c(Cc3ccc(F)cc3)n12` [Compound 212, 3-(4-Fluorobenzyl)-5-methyl-N-(tetrahydro-2H-pyran-4-yl)-2-(trifluoromethyl)imidazo[1,2-a]pyridine-7-carboxamide] has an IC50 of at most 100 nM.
Molecule `CCCCc1c(C(C)C)nc2cc(C(=O)Nc3ccccc3)ccn12` [Compound 144, 3-Butyl-2-isopropyl-N-phenylimidazo[1,2-a]pyridine-7-carboxamide] has an IC50 of at most 100 nM.
`CC(F)(F)c1nc2cc(C(=O)NC3CCOCC3)cc(C#N)n2c1Cc1ccc(Cl)cc1` [Compound 221, 3-(4-Chlorobenzyl)-5-cyano-2-(1,1-difluoroethyl)-N-(tetrahydro-2H-pyran-4-yl)imidazo[1,2-a]pyridine-7-carboxamide] showed an IC50 of at most 100 nM.
For `N#Cc1cc(C(=O)NCC(=O)c2ccccc2)cc2nc(C(F)(F)F)c(CC3CCC(F)(F)CC3)n12` [Compound 67, 5-Cyano-3-[(4,4-difluorocyclohexyl)methyl]-N-(2-oxo-2-phenylethyl)-2-(trifluoromethyl)imidazo[1,2-a]pyridine-7-carboxamide], the IC50 was at most 100 nM.
Work on `N#Cc1cc(C(=O)N[C@H]2CC[C@H](O)CC2)cc2nc(C(F)(F)F)c(CC3CCC(F)(F)CC3)n12` [Compound 56, 5-Cyano-3-[(4,4-difluorocyclohexyl)methyl]-N-[(1R,4R)-4-hydroxycyclohexyl]-2-(trifluoromethyl)imidazo[1,2-a]pyridine-7-carboxamide] yielded an IC50 of at most 100 nM.
`N#CC1(NC(=O)c2cc(Cl)n3c(CC4CCC(F)(F)CC4)c(C(F)(F)F)nc3c2)CC1` [Compound 175, 5-Chloro-N-(1-cyanocyclopropyl)-3-[(4,4-difluorocyclohexyl)methyl]-2-(trifluoromethyl)imidazo[1,2-a]pyridine-7-carboxamide] was tested, and the IC50 was at most 100 nM.
`[2H]C([2H])([2H])OC(C)(C)CNC(=O)c1cc(CO)n2c(CC3CCC(F)(F)CC3)c(C(C)(F)F)nc2c1` [Compound 192, 3-[(4,4-Difluorocyclohexyl)methyl]-2-(1,1-difluoroethyl)-5-(hydroxymethyl)-N-(2-methoxy-d3-2-methylpropyl)imidazo[1,2-a]pyridine-7-carboxamide] was tested, and the IC50 was at most 100 nM.
Work on `CC(C)(NC(=O)c1cc(Cl)n2c(CC3CCC(F)(F)CC3)c(C(F)(F)F)nc2c1)C1CCOCC1` [Compound 81, 5-Chloro-3-[(4,4-difluorocyclohexyl)methyl]-N-[2-(tetrahydro-2H-pyran-4-yl)propan-2-yl]-2-(trifluoromethyl)imidazo[1,2-a]pyridine-7-carboxamide] yielded an IC50 of at most 100 nM.
For `Cc1cc(CNC(=O)c2cc(Cl)n3c(CC4CCC(F)(F)CC4)c(C(F)(F)F)nc3c2)no1` [Compound 154, 5-Chloro-3-[(4,4-difluorocyclohexyl)methyl]-N-[(5-methylisoxazol-3-yl)methyl]-2-(trifluoromethyl)imidazo[1,2-a]pyridine-7-carboxamide], the IC50 [1] was at most 100 nM.
For `Cc1cc(CNC(=O)c2cc(Cl)n3c(CC4CCC(F)(F)CC4)c(C(F)(F)F)nc3c2)[nH]n1` [Compound 152, 5-Chloro-3-[(4,4-difluorocyclohexyl)methyl]-N-[(3-methyl-1H-pyrazol-5-yl)methyl]-2-(trifluoromethyl)imidazo[1,2-a]pyridine-7-carboxamide], the IC50 [1] was at most 100 nM.
Molecule `N#Cc1cc(C(=O)N2CCOC2=O)cc2nc(C(F)(F)F)c(CC3CCC(F)(F)CC3)n12` [Compound 150, 3-[(4,4-Difluorocyclohexyl)methyl]-7-(2-oxoxazolidine-3-carbonyl)-2-(trifluoromethyl)imidazo[1,2-a]pyridine-5-carbonitrile] has an IC50 [1] of at most 100 nM.
`Cc1ccc(Cc2c(C(F)(F)F)nc3cc(C(=O)NC4CCOCC4)cc(C)n23)cc1` [Compound 207, 5-Methyl-3-(4-methylbenzyl)-N-(tetrahydro-2H-pyran-4-yl)-2-(trifluoromethyl)imidazo[1,2-a]pyridine-7-carboxamide] gave an IC50 of at most 100 nM.
In the case of `Cc1cc(NC(=O)c2cc(C#N)n3c(CC4CCC(F)(F)CC4)c(C(F)(F)F)nc3c2)on1` [Compound 138, 5-Cyano-3-[(4,4-difluorocyclohexyl)methyl]-N-(3-methylisoxazol-5-yl)-2-(trifluoromethyl)imidazo[1,2-a]pyridine-7-carboxamide], the IC50 [1] is reported as at most 100 nM.
Work on `O=C(NCc1cccc(O)c1)c1cc(Cl)n2c(CC3CCC(F)(F)CC3)c(C(F)(F)F)nc2c1` [Compound 103, 5-Chloro-3-[(4,4-difluorocyclohexyl)methyl]-N-(3-hydroxybenzyl)-2-(trifluoromethyl)imidazo[1,2-a]pyridine-7-carboxamide] yielded an IC50 [1] of at most 100 nM.
With `CC(C)c1nc2cc(C(=O)NCC(F)(F)F)cc(C#N)n2c1CC1CCC(F)(F)CC1` [Compound 171, 5-Cyano-3-[(4,4-difluorocyclohexyl)methyl]-2-isopropyl-N-(2,2,2-trifluoroethyl)imidazo[1,2-a]pyridine-7-carboxamide] the IC50 was at most 100 nM.
For `N#Cc1cc(C(=O)NC(=O)C2CC2)cc2nc(C(F)(F)F)c(CC3CCC(F)(F)CC3)n12` [Compound 202, 5-Cyano-N-(cyclopropanecarbonyl)-3-[(4,4-difluorocyclohexyl)methyl]-2-(trifluoromethyl)imidazo[1,2-a]pyridine-7-carboxamide], the IC50 was at most 100 nM.
In the case of `Cc1cc(C(C)C(=O)NC2CCOCC2)cc2nc(C(F)(F)F)c(CC3CCC(F)(F)CC3)n12` (stereo not shown) [Compound 89, 2-{3-[(4,4-Difluorocyclohexyl)methyl]-5-methyl-2-(trifluoromethyl)imidazo[1,2-a]pyridin-7-yl}-N-(tetrahydro-2H-pyran-4-yl)propanamide], the IC50 is reported as at most 100 nM.
`CC(=O)c1nc2cc(C(=O)Nc3ccccc3)cc(C)n2c1CC1CCC(F)(F)CC1` [Compound 19, 2-Acetyl-3-[(4,4-difluorocyclohexyl)methyl]-5-methyl-N-phenylimidazo[1,2-a]pyridine-7-carboxamide] was tested, and the IC50 was at most 100 nM.
`CC(C)(CNC(=O)c1cc2nc(C(F)(F)F)c(CC3CCC(F)(F)CC3)n2c(Cl)c1Cl)S(C)(=O)=O` [Compound 216, 5,6-Dichloro-3-[(4,4-difluorocyclohexyl)methyl]-N-[2-methyl-2-(methylsulfonyl)propyl]-2-(trifluoromethyl)imidazo[1,2-a]pyridine-7-carboxamide] was tested, and the IC50 was at most 100 nM.
For `CCOC(=O)CNC(=O)c1cc(C#N)n2c(CC3CCC(F)(F)CC3)c(C(F)(F)F)nc2c1` [Compound 139, Ethyl 2-{5-cyano-3-[(4,4-difluorocyclohexyl)methyl]-2-(trifluoromethyl)imidazo[1,2-a]pyridine-7-carboxamide}acetate], the IC50 was at most 100 nM.
In the case of `Cc1cc(CC(=O)NOC2CCOCC2)cc2nc(C(F)(F)F)c(CC3CCC(F)(F)CC3)n12` [Compound 84, 2-{3-[(4,4-Difluorocyclohexyl)methyl]-5-methyl-2-(trifluoromethyl)imidazo[1,2-a]pyridin-7-yl}-N-(tetrahydro-2H-pyran-4-yloxy)acetamide], the IC50 is reported as at most 100 nM.
For `Cc1cc(C(=O)NC2CCOCC2)cc2nc(C(C)(C)C)c(CC3CCC(F)(F)CC3)n12` [Compound 4, 2-tert-Butyl-3-[(4,4-difluorocyclohexyl)methyl]-5-methyl-N-(tetrahydro-2H-pyran-4-yl)imidazo[1,2-a]pyridine-7-carboxamide], the IC50 was at most 100 nM.
For `[2H]C([2H])([2H])OC(C)(C)CNC(=O)c1cc(C#N)n2c(Cc3ccc(Cl)cc3)c(C(C)(F)F)nc2c1` [Compound 223, 3-(4-Chlorobenzyl)-5-cyano-2-(1,1-difluoroethyl)-N-(2-methoxy-d3-2-methylpropyl)imidazo[1,2-a]pyridine-7-carboxamide], the IC50 was at most 100 nM.
`N#Cc1cc(C(=O)NCC2(O)CC2)cc2nc(C(F)(F)F)c(CC3CCC(F)(F)CC3)n12` [Compound 69, 5-Cyano-3-[(4,4-difluorocyclohexyl)methyl]-N-[(1-hydroxycyclopropyl)methyl]-2-(trifluoromethyl)imidazo[1,2-a]pyridine-7-carboxamide] gave an IC50 of at most 100 nM.
Molecule `O=C(Nc1ccccc1)c1cc2nc(C3CC(F)(F)C3)c(CC3CCC(F)(F)CC3)n2cc1Cl` [Compound 7, 6-Chloro-2-(3,3-difluorocyclobutyl)-3-[(4,4-difluorocyclohexyl)methyl]-N-phenylimidazo[1,2-a]pyridine-7-carboxamide] has an IC50 of at most 100 nM.
